# According to a melting point compilation (Tetko et al.; mined from patent text by program, amines drawn as free bases though some values may be those of a salt):
row,melting point [°C],Structure (SMILES)
1,124 to 125,O=C(c1ccco1)N1CCN(c2nc3c(c(-c4ccc(F)cc4)n2)CCC3)CC1
2,224 to 226,O=C(Nc1cccc2c1C(=O)c1c-2n[nH]c1-c1ccc(C(=O)NC2CCNCC2)s1)NN1CCOCC1
3,123 to 125,CC(=O)N1CCN(c2ccc(Nc3nccc(-c4sc(-c5cccnc5)nc4C)n3)cc2)CC1
4,253 to 254,CS(=O)(=O)c1ccc(-c2nn(Cc3ccncc3)c(=O)cc2-c2ccc(F)cc2)cc1
5,273 to 278,Cc1ccc(-c2ccc(C(=O)O)cc2)c(N)c1
6,230 to 231,O=C(O)c1cccc(-c2cccc(Oc3ccc(Cl)c(Cl)c3)n2)c1
7,239 to 241,COc1ncccc1Nc1c(NC(NC(=O)c2ccc(Cl)cc2)C(C)(C)C)c(=O)c1=O (stereo not given)
8,164 to 167,COc1ccc(NC(=O)c2ccc(OC)c(N)c2)cc1
9,213 to 215,COc1ccc(C(=O)N2C(C)Cc3ccccc3C2CNC(=O)c2cc(OC)c(OC)c(OC)c2)cc1 (stereo not given)
10,72 to 73,CCc1nn(-c2ccc(F)cc2)c2cc(Br)ccc12
11,133 to 135,COc1ccc(CC(=O)N(Cc2ccc(C)cc2)C2CCN(CC3CCCCC3)CC2)cc1
12,250,O=C(O)c1ccc(-c2cnc3c(c2)N(Cc2ccccc2OC(F)(F)F)CCN3)cc1
13,> 250,Fc1ccc(Nc2ncnc3ccc(-n4cncn4)cc23)c(F)c1
14,173 to 174,c1ccc(-c2nsc3nc4ccccc4n23)nc1

# Continued, compound first:
row,Structure (SMILES),melting point [°C]
1,CC#CCOc1ccc(S(=O)(=O)N2CCOCC2C(=O)NO)cc1 (stereo not given),68 to 72
2,Nn1cc(C(=O)NCc2ccc(Cl)cc2)c(=O)c2cc(CCCO)ccc21,187 to 188
3,C(=Cc1ccccc1)C=Nc1ccc(Cc2ccc(N=CC=Cc3ccccc3)cc2)cc1,162 to 164
4,COCC12CCC(=O)CC1CCC1C3CCC(=O)C3(C)CCC12 (stereo not given),94 to 96
5,COc1cc(C(=O)NC(C)(C)C)ccc1S(=O)(=O)Cl,145 to 149
6,CC1(C)C(=O)Nc2cc3[nH]c(C4=CCCC4)nc3cc21,233 to 235
7,CC1(c2ccccc2)C(=O)Nc2cc(Cl)c(Cl)cc2C1=O (stereo not given),213 to 214
8,CC(=O)Oc1cc(OCC(F)(F)C(F)(F)F)ccc1C(=O)O,126
9,CC(C)n1cc(C2CCC3(CC2)OCCO3)c2cc(C#N)ccc21,114 to 116
10,Cc1cc(Br)c2c(c1)C(C(=O)O)c1ccccc1CO2 (stereo not given),196 to 197
11,C=C(C#N)S(=O)(=O)c1ccc(OC(F)(F)C(Cl)Cl)cc1,89 to 90
12,CN(Cc1ccccc1)C(N)=NC#N,102 to 105
13,COC(=O)CCc1ccc(OCCN(C)c2nc3ccccc3o2)cc1,51 to 52
14,COc1ccc2cc3c(Cl)nn(CCN(C)C)c3nc2c1,86 to 88
15,O=C(NCc1ccc(Cl)cc1)c1cn(C2CC2)c2oc(CCl)cc2c1=O,174 to 176
16,CN1CC(C(=O)CO)CC2c3cccc4[nH]cc(c34)CC21 (stereo not given),202 to 203
17,COc1ccc(-c2[nH]cnc2-c2cc(OC)c(O)c(OC)c2)cc1O,172 to 173
18,O=C1CC(c2ccccc2)c2cccc(O)c21 (stereo not given),80
19,OC1(c2ccccc2)CNN=C1c1ccc(Cl)cc1 (stereo not given),195 to 196
20,C=CCOCc1nc(C(C)(C)C)nn1-c1c(Cl)cc(Cl)cc1Cl,34 to 37
21,COC(=O)C1CN(C(=O)c2cc(OC)c(OC)c(OC)c2)CCN1C(=O)OC(C)(C)C (stereo not given),163 to 164
22,COc1cccc(COc2ncc(F)c(NN)n2)c1,103 to 106
23,CCCOCCOC(=O)C(=O)Nc1nc(-c2ccccc2)cs1,94 to 96
24,O=C(c1c(F)cccc1F)N1CNCN(c2ccc(Oc3ccc(C(F)(F)F)cc3Cl)cc2F)C1=O,135 to 137
25,O=C(O)c1c(F)cc(F)c(F)c1NCc1ccccc1,140 to 141
26,COc1cc(OC)cc(S(=O)(=O)c2ccc([N+](=O)[O-])c(C)c2)c1,125 to 127
